Assay results from ChEMBL document CHEMBL1201862, “PubChem BioAssay data set” (2004).
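Values below derive from 48-hour exposures of cells grown in 96-well plates, with endpoints linearly interpolated between the two concentrations bracketing the appropriate inhibition level. GI50 is the concentration that inhibits growth by half.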 The source made the active and inactive calls. Rule as the data show it: active = GI50 up to about 1.1 µM and inactive = higher.

Tests used:
Test in all cases: DTP human tumour cell line panel, 48 h
786-0 = system: 786-0
ACHN = system: ACHN
CCRF-CEM = system: CCRF-CEM
HCC 2998 = system: HCC 2998
HCT-116 = system: HCT-116
MCF7 = system: MCF7
MDA-MB-231 = system: MDA-MB-231
MDA-N = system: MDA-N
MOLT-4 = system: MOLT-4
Malme-3M = system: Malme-3M
NCI-H226 = system: NCI-H226
NCI-H522 = system: NCI-H522
OVCAR-5 = system: OVCAR-5
RPMI-8226 = system: RPMI-8226
SK-MEL-28 = system: SK-MEL-28
SK-MEL-2 = system: SK-MEL-2
SNB-19 = system: SNB-19
SR = system: SR
UACC-62 = system: UACC-62
BT-549 = system: BT-549

Measured: GI50

C=C(Br)CNC(=O)CCC(=O)NCC(=C)Br
inactive: 786-0 > 100 µM | ACHN > 100 µM | CCRF-CEM > 100 µM | HCC 2998 > 100 µM | HCT-116 > 100 µM | MCF7 > 100 µM | MDA-MB-231 > 100 µM | MDA-N > 100 µM | MOLT-4 > 100 µM | Malme-3M > 100 µM | NCI-H226 > 100 µM | NCI-H522 > 100 µM | OVCAR-5 > 100 µM | RPMI-8226 > 100 µM | SK-MEL-28 > 100 µM | SK-MEL-2 > 100 µM | SNB-19 > 100 µM | SR > 100 µM | UACC-62 > 100 µM

CN(C)CCNC(=O)c1cccc2c(NC(CS)C(=O)O)c3ccccc3[n+](C)c12 (stereo unspecified)
inactive: 786-0 69.2 µM | ACHN 35.5 µM | BT-549 35.6 µM | HCC 2998 50 µM | HCT-116 41.1 µM | MCF7 95.5 µM | MDA-MB-231 41.4 µM | MOLT-4 41.9 µM | Malme-3M 30.2 µM | OVCAR-5 > 100 µM | RPMI-8226 > 100 µM | SK-MEL-28 > 100 µM | SK-MEL-2 > 100 µM | SNB-19 84.7 µM | SR 22.7 µM | UACC-62 61.2 µM

CC(C)(C)[C@H]1CC[C@@](O)(c2ccccc2)CC1.CC(C)(C)[C@H]1CC[C@](O)(c2ccccc2)CC1
inactive: 786-0 18 µM | ACHN 20 µM | CCRF-CEM 26.5 µM | HCC 2998 26.5 µM | HCT-116 22.2 µM | MOLT-4 15.6 µM | Malme-3M 29.9 µM | NCI-H226 11.6 µM | NCI-H522 23.4 µM | OVCAR-5 44.7 µM | RPMI-8226 21.1 µM | SK-MEL-28 22.5 µM | SK-MEL-2 14.7 µM | SNB-19 25.2 µM | SR 15.2 µM | UACC-62 19.1 µM

CC(Nc1ccc(S(=O)(=O)NC(=N)N)cc1)c1c2ccccc2nc2ccccc12 (stereo unspecified)
inactive: 786-0 36 µM | ACHN 24.7 µM | CCRF-CEM 19.3 µM | HCC 2998 27.5 µM | HCT-116 > 10 µM | MOLT-4 14.6 µM | Malme-3M 22.4 µM | NCI-H226 19.6 µM | NCI-H522 15.1 µM | OVCAR-5 20.2 µM | RPMI-8226 16.3 µM | SK-MEL-28 44.9 µM | SK-MEL-2 22.5 µM | SNB-19 40 µM | SR 14.2 µM | UACC-62 > 10 µM

CC(C)(C)NNc1c([N+](=O)[O-])cnn(-c2ccccc2)c1=O
inactive: 786-0 6.24 µM | ACHN 8.71 µM | BT-549 1.41 µM | HCC 2998 7.14 µM | HCT-116 2.46 µM | MCF7 2.92 µM | MOLT-4 2.13 µM | Malme-3M 4.05 µM | NCI-H226 7.96 µM | NCI-H522 1.77 µM | OVCAR-5 8.81 µM | RPMI-8226 3.96 µM | SK-MEL-28 2.49 µM | SK-MEL-2 > 10 µM | SNB-19 11.2 µM | SR 1.58 µM | UACC-62 3.5 µM
active: CCRF-CEM 0.944 µM

O=Cc1ccccc1B(O)O
inactive: 786-0 43.4 µM | ACHN 19.1 µM | BT-549 15.1 µM | CCRF-CEM 6.34 µM | HCT-116 43.2 µM | MCF7 29.4 µM | MDA-MB-231 37.8 µM | NCI-H226 > 100 µM | NCI-H522 22.9 µM | OVCAR-5 87.5 µM | SK-MEL-28 68.4 µM | SK-MEL-2 > 100 µM | SNB-19 > 100 µM | UACC-62 31.5 µM
active: MOLT-4 1.09 µM | RPMI-8226 < 0.01 µM | SR < 0.01 µM

CCOP(=O)(O)C(C)(C)NC
inactive: 786-0 > 100 µM | ACHN > 100 µM | CCRF-CEM > 100 µM | HCC 2998 > 100 µM | HCT-116 > 100 µM | MDA-MB-231 > 100 µM | MDA-N > 100 µM | MOLT-4 > 100 µM | Malme-3M > 100 µM | NCI-H226 > 100 µM | NCI-H522 > 100 µM | OVCAR-5 > 100 µM | RPMI-8226 > 100 µM | SK-MEL-28 > 100 µM | SK-MEL-2 > 100 µM | SNB-19 > 100 µM | UACC-62 > 100 µM

CC(Nc1cc(Cl)cc(Cl)c1)c1ccncc1 (stereo unspecified)
inactive: 786-0 26.2 µM | ACHN 22.4 µM | BT-549 22.4 µM | CCRF-CEM 15.3 µM | HCC 2998 16.8 µM | HCT-116 14.8 µM | MCF7 16.2 µM | MDA-N 21.3 µM | MOLT-4 13.9 µM | Malme-3M 27.7 µM | NCI-H226 11.5 µM | NCI-H522 15.3 µM | OVCAR-5 16.2 µM | RPMI-8226 18.2 µM | SK-MEL-28 30.6 µM | SK-MEL-2 > 10 µM | SNB-19 33.8 µM

CC12CC3CC/C(=N\O)C(C1)C3(N1CCOCC1)C/C2=N/O (stereo unspecified)
inactive: 786-0 > 100 µM | ACHN > 100 µM | CCRF-CEM > 100 µM | HCC 2998 > 100 µM | HCT-116 > 100 µM | MCF7 > 100 µM | MDA-MB-231 > 100 µM | MDA-N > 100 µM | MOLT-4 > 100 µM | Malme-3M > 100 µM | NCI-H226 > 100 µM | NCI-H522 > 100 µM | OVCAR-5 > 100 µM | SK-MEL-28 > 100 µM | SK-MEL-2 > 100 µM | SNB-19 > 100 µM | SR > 100 µM | UACC-62 > 100 µM

N#Cc1c(N)oc(-c2cccc([N+](=O)[O-])c2)c1C#N
inactive: 786-0 27.7 µM | ACHN 19.1 µM | CCRF-CEM 27 µM | HCC 2998 19.5 µM | HCT-116 33.7 µM | MCF7 53.3 µM | MDA-MB-231 37.1 µM | Malme-3M 24.4 µM | NCI-H226 43.2 µM | NCI-H522 23.7 µM | OVCAR-5 82.4 µM | RPMI-8226 22 µM | SK-MEL-28 19.5 µM | SK-MEL-2 44.5 µM | SNB-19 31.6 µM | SR 46.6 µM | UACC-62 30 µM

SC1=NC2=C(CSC/C2=C\c2ccc(Cl)cc2)C(c2ccc(Cl)cc2)N1 (stereo unspecified)
inactive: 786-0 26.5 µM | ACHN 40 µM | CCRF-CEM 24.7 µM | HCC 2998 25.4 µM | HCT-116 27.5 µM | MCF7 30.8 µM | MDA-MB-231 35.2 µM | MDA-N 33.5 µM | MOLT-4 31.1 µM | Malme-3M 26.4 µM | NCI-H522 42.8 µM | OVCAR-5 72.4 µM | RPMI-8226 37 µM | SK-MEL-28 > 100 µM | SK-MEL-2 34.2 µM | SNB-19 44.3 µM | SR 32.2 µM | UACC-62 49 µM

O=C1/C(=C/c2ccccc2)CNC/C1=C\c1ccccc1
active: HCT-116 0.184 µM | MOLT-4 0.429 µM | NCI-H522 1.02 µM | RPMI-8226 0.221 µM | SR 0.659 µM
inactive: 786-0 1.57 µM | ACHN 2.05 µM | CCRF-CEM 1.37 µM | HCC 2998 1.87 µM | Malme-3M 3.26 µM | NCI-H226 2.42 µM | OVCAR-5 2.44 µM | SK-MEL-28 1.92 µM | SK-MEL-2 3.21 µM | SNB-19 3.28 µM | UACC-62 1.76 µM

[O-][S+]1Nc2c(Cl)cc(Cl)c(Cl)c2S1 (stereo unspecified)
inactive: 786-0 > 100 µM | ACHN > 100 µM | CCRF-CEM 39.3 µM | HCC 2998 > 100 µM | HCT-116 > 100 µM | MOLT-4 34.7 µM | Malme-3M > 100 µM | NCI-H226 > 100 µM | NCI-H522 78.9 µM | OVCAR-5 > 100 µM | RPMI-8226 > 100 µM | SK-MEL-28 > 100 µM | SK-MEL-2 > 100 µM | SNB-19 > 100 µM | SR 43.1 µM | UACC-62 > 100 µM

COc1ccc(N2C(=O)C3c4[nH]c5cccc(C)c5c4C4CCC(C(C)(C)C)CC4C3C2=O)cc1 (stereo unspecified)
inactive: ACHN > 10 µM | HCC 2998 > 10 µM | HCT-116 5.62 µM | MCF7 > 10 µM | MDA-MB-231 > 10 µM | MDA-N > 10 µM | MOLT-4 > 10 µM | Malme-3M > 10 µM | NCI-H226 > 10 µM | NCI-H522 > 10 µM | OVCAR-5 > 10 µM | RPMI-8226 > 10 µM | SK-MEL-28 > 10 µM | SK-MEL-2 > 10 µM | SNB-19 > 10 µM | SR > 10 µM | UACC-62 > 10 µM

CCCCNC(=S)Nc1nc(C(=O)NNS(=O)(=O)c2ccccc2)cs1
inactive: 786-0 > 100 µM | ACHN 28.7 µM | BT-549 32.7 µM | CCRF-CEM 44.3 µM | HCC 2998 30.5 µM | HCT-116 26.2 µM | MCF7 42 µM | MDA-MB-231 29.4 µM | MOLT-4 34.8 µM | Malme-3M 28.9 µM | NCI-H226 > 10 µM | NCI-H522 28.8 µM | OVCAR-5 42 µM | RPMI-8226 31.2 µM | SK-MEL-2 22.6 µM | SR 41.1 µM | UACC-62 22.9 µM

COCNC(=NC#N)NCOC
inactive: 786-0 > 47.2 µM | ACHN > 100 µM | CCRF-CEM > 100 µM | HCC 2998 > 100 µM | HCT-116 > 65.9 µM | MOLT-4 > 100 µM | Malme-3M > 100 µM | NCI-H226 > 100 µM | NCI-H522 > 100 µM | OVCAR-5 > 100 µM | RPMI-8226 > 49.3 µM | SK-MEL-28 > 100 µM | SK-MEL-2 > 100 µM | SNB-19 > 100 µM | SR 20.2 µM | UACC-62 > 100 µM
